Assay results reported in patent US7595183B2, “Cathepsins L-like cysteine protease derived from northern shrimp (Pandalus eous)” (Nichirei Corporation, priority 2002, dated 2009).
Peptide text beside a SMILES is read from it. * marks the point of attachment. Cbz = O=C(OCc1ccccc1)*; CHN2 = [N-]=[N+]=C*; tBu = CC(C)(C)*

Tested on: northern shrimp cathepsin L1
Experiment: Effects of inhibitors on northern shrimp cathepsin L1, residual activity with Z-Phe-Arg-MCA
Assay type: biochemical, northern shrimp (Pandalus eous)
Settings: for Residual activity (%): enzyme 1 nM, Z-Phe-Arg-MCA 100 μM
Experimental: Enzymatic activity was assayed at 25° C. using intramolecularly quenched MCA (methyl coumarylamide) substrates in a buffer containing 100 mM sodium acetate, pH 6.0, 100 mM NaCl, 2 mM DTT, 2 mM EDTA and 0.01% Brij-35. The substrate solution was prepared in dimethyl sulfoxide at a concentration of 20 mM. Hydrolysis was initiated by adding the enzyme diluted with the same buffer. Enzymatic activity was determined by measuring fluorescence intensity of the released 7-amino-4-methylcoumarin (AMC) at an excitation wavelength of 380 nm and an emission wavelength of 460 nm.
Enzyme solution was pretreated with any one of inhibitors E64 (L-trans-epoxysuccinyl-leucyl-agmatine), Z-Phe-Phe-CHN2, Z-Phe-Tyr(t-Bu)-CHN2, leupeptin, antipain, PMSF (phenylmethylsulfonyl fluoride), and 1,10-phenanthroline in a buffer (containing 100 mM sodium acetate, 2 mM DTT, 2 mM EDTA, and 0.05% Triton X-100). Residual enzymatic activity was then measured with fluorescent substrate Z-Phe-Arg-MCA. The final concentrations of the enzymes and the substrate were 1 nM and 100 μM, respectively. The residual enzymatic activity was measured with the method described above.

SMILES | Inhibition of northern shrimp cathepsin L1 (in words) | Residual activity (%) (inhibitor 0.1 μM) | Residual activity (%) (inhibitor 1 μM) | Residual activity (%) (inhibitor 10 μM) | Residual activity (%) (inhibitor 1 mM) | Residual activity (%) (inhibitor 10 mM)
CC(C)C[C@H](NC(=O)[C@H]1O[C@@H]1C(=O)O)C(=O)NCCCCN=C(N)N (relative stereo) [E64, L-trans-epoxysuccinyl-leucyl-agmatine] | strongly inhibited | 0 | 0 | – | – | –
CC(C)(C)Oc1ccc(C[C@H](NC(=O)[C@H](Cc2ccccc2)NC(=O)OCc2ccccc2)C(=O)C=[N+]=[N-])cc1 [Z-Phe-Tyr(t-Bu)-CHN2] (Cbz-Phe-Tyr(tBu)-CHN2) | did not inhibit the present enzyme activity so much | – | 94 | 86 | – | –
O=S(=O)(F)Cc1ccccc1 [PMSF, phenylmethylsulfonyl fluoride] | – | – | – | – | 100 | 100
c1cnc2c(c1)ccc1cccnc12 [1,10-Phenanthroline, 1,10-phenanthroline] | – | – | – | – | 99 | 98
CC(=O)N[C@@H](CC(C)C)C(=O)N[C@@H](CC(C)C)C(=O)N[C@H](C=O)CCCNC(=N)N [Leupeptin, leupeptin] | strongly inhibited | – | 0 | 0 | – | –
[N-]=[N+]=CC(=O)[C@H](Cc1ccccc1)NC(=O)[C@H](Cc1ccccc1)NC(=O)OCc1ccccc1 [Z-Phe-Phe-CHN2] (Cbz-Phe-Phe-CHN2) | did not inhibit the present enzyme activity so much | – | 78 | 55 | – | –
